Measured values as given in paper PMC11417994, “Cyclohexanediamine Triazole (CHDT) Functionalization Enables Labeling of Target Molecules with Al^18F/^68Ga/^111In” (Bioconjugate Chemistry, 2024).
Several values for one entry are separate records, joined by “and”; a condition that tells them apart may be missing. Identical values can stand only once. One block for each compound: values may come before it.

Tests used:
PSMA [1] = molecular target: T1, PSMA (Homo sapiens, UniProt Q04609); test: Competition binding assay, LNCaP cell homogenates, radioligand [177Lu]Lu-PSMA-617; details: nonlabeled compounds; [177Lu]Lu-PSMA-617 12 nM; 37 °C, 60 min; Table 2 mean (SEM), Table S3 individual experiments and mean
T1 construct: Detection of endogenous PSMA expression in LNCaP and PC3 cells relative to β-actin expression by Western; host or cells: LNCaP human prostate carcinoma cells (monolayer, spheroids or Potter-Elvehjem homogenates)
T1 sequence (Q04609 whole entry): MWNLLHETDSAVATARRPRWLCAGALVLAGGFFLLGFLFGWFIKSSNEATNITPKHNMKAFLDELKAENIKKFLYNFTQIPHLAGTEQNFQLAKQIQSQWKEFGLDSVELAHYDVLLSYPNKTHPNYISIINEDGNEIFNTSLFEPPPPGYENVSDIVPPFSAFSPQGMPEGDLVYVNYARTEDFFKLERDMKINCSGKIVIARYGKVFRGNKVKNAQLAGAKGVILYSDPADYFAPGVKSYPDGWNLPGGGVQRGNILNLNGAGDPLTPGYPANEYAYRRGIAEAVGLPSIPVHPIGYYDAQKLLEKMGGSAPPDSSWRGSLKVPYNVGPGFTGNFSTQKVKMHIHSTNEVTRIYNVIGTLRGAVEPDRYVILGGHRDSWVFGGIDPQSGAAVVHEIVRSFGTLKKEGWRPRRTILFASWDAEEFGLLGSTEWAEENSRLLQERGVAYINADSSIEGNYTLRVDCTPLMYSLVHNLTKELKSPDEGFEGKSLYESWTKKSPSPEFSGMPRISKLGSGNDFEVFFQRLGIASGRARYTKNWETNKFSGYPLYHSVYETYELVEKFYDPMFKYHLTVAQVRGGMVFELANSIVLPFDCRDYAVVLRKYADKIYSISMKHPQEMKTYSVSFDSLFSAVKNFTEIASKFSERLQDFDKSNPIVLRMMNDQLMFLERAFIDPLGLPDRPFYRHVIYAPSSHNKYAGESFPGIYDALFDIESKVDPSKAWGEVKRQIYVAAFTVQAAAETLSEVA
Description: The binding affinity of the nonlabeled CHDT-PSMA-1/2/3, PSMA-1007, PSMA-617, and KuE was assessed in competition binding assays using LNCaP cell homogenates (∼1 × 10^6 cells/mL using Potter-Elvehjem) and the radioligand [^177Lu]Lu-PSMA-617 (n = 5 for CHDT-PSMA-1; n = 4 for CHDT-PSMA-2/3; n = 2 for PSMA-1007; n = 8 for PSMA-617; n = 6 for KuE). […] The assays were performed in a final volume of 200 μL. The incubation was stopped by washing the homogenate with cold PBS four times using a filter (Whatman GF/C, 90 min presoaked in 0.3% polyethylenimine) in a cell harvester (Brandel, USA). The radioactivity bound to the filter was measured in a gamma counter. Filter binding was determined for adjacent samples without cell homogenate. The experiments were performed two to four times in triplicates or quadruplicates. Inhibitory constants (Ki) were derived from nonlinear regression according to the model of “One site – Fit Ki” as implemented in GraphPad Prism 10. The Kd value of [^177Lu]Lu-PSMA-617 was determined in saturation binding assays using LNCaP cell homogenates to be 15.2 (±2.1) nM.

PSMA [2] = molecular target: T1, PSMA; test: Saturation binding (surface-bound and internalized), intact LNCaP cells as monolayer
Excerpt: (§1) In addition to assessing the binding affinities for nonlabeled CHDT-PSMA-1/2/3, we sought to characterize the saturation binding of the Al^18F-, ^68Ga-, and ^111In-labeled compounds using LNCaP cells cultured in monolayers and as spheroids. The saturation binding curves for Al[^18F]F-CHDT-PSMA-1/2/3 are depicted in Figure 3, while the graphs for [^18F]PSMA-1007 and ^68Ga- and ^111In-labeled CHDT-PSMA-1/2/3 can be found in Figures S7–S9 in the Supporting Information. The binding parameters (Kd and Bmax) for Al[^18F]F-CHDT-PSMA-1/2/3 and [^18F]PSMA-1007 are summarized in Table 3 (for the ^68Ga- and ^111In-labeled compounds see Tables S4 and S5 in the Supporting Information). For the saturation binding assays, we recorded surface-bound radioligand (named “binding”), which refers to bound radioligand that can be removed by acid wash, and internalized or acid-resistant radioligand (named “internalization”), which refers to radioligand that remains cell-bound after acid wash. Consequently, two saturation binding plots were obtained and two sets of binding parameters (Kd/Bmax and Kd,int/Bmax,int) were derived.
(§2) For saturation assays in well plates, monolayers of LNCaP (sowing 5 × 10^4 cells/well in 48-well plates 2 days before the assay), as well as LNCaP spheroids were incubated with radiolabeled CHDT-PSMA-1/2/3 and PSMA-1007 (0.2 nM to 100 nM) with adjacent samples receiving KuE (0.8 mM) at 37 °C for 2 h. The number of experiments can be derived from the data in the Tables S4, S5, and S7 in the Supporting Information. After removing the incubation medium and washing of cells with ice-cold PBS (containing Mg^2+ and Ca^2+) the surface-bound activity was stripped with 4 °C cold acid-wash buffer (0.2 M glycine, 0.15 M NaCl, pH 3.0) for 10 min. The acid wash buffer was transferred from the wells to measuring tubes, as was the PBS buffer after washing once. Cytosolic activity (internalized radioligand) was determined after treatment with cell lysis buffer (1% SDS in 0.1 M NaOH) at 37 °C for 30 min. Cell surface and cytosolic activity were measured separately in a gamma counter. Time-depending internalization assays were performed only with cells in monolayer. The incubation (radioligand concentration 13 nM) for these assays was terminated after 10 min, 1 and 3 h, with ^111In and ^177Lu additionally after 24 and 48 h at 37 °C, respectively. During the internalization assays adjacent samples received KuE (0.8 mM) for PSMA blocking, methyl-β-cyclodextrin (MβCD; 3 mM) or KuE together with MβCD, 1 h before radioligand application. The number of experiments can be derived from the data of Figure S11 and associated table and from Table S8 in the Supporting Information.
(§3) Dissociations constants (Kd and Kd,int), as well as maximal binding capacities (Bmax and Bmax,int), were derived from specific binding data by nonlinear regression according to the model of “One site-specific binding” as implemented in GraphPad Prism 10. Protein content was determined using the bicinchoninic acid protein assay kit (Pierce, Thermo Scientific) to calculate the binding capacities in pmol/mg and for the time-depending internalization the internalized percent of administrated dose per μg protein (% AD/μg protein).

PSMA [3] = molecular target: T1, PSMA; test: Time-depending internalization assay, LNCaP cells as monolayer; format: cell-based; details: individual experiments; for specific internalization in the presence of MβCD: MβCD 3 mM; for specific internalization: radioligand 13 nM
Description: as §2, §3

LNCaP tumor xenograft = test: Small animal PET imaging, LNCaP tumor xenograft mouse model; format: in vivo, mice
Description: All animal experiments were performed in accordance with the German Animal Welfare regulations and were approved by the local ethics committee for animal experiments (DD24.1-51-31/449/49, Oct 26, 2018). A PSMA-positive prostate cancer xenograft model was generated by subcutaneous injection of human LNCaP cells into the right shoulder of 8–12 week-old male nude mice (Rj:NMRI-Foxn1^nu/nu, Janvier Laboratories, Le Genest-Saint-Isle, France). Imaging studies were performed when subcutaneous tumors reached a diameter of at least 6 mm. General anesthesia of the animals was induced and maintained by inhalation of 10% (v/v) desflurane in 30/70% (v/v) oxygen/air. Animals were continuously warmed at 37 °C during anesthesia.
Positron emission tomography (PET) was performed in vivo using the nanoScan PET/CT scanner (Mediso Medical Imaging Systems, Budapest, Hungary), especially suited for small animals. Each animal received 8–12 MBq of the reference compound [^18F]PSMA-1007 or the radioligands Al[^18F]F-CHDT-PSMA-1/2/3 in phosphate-buffered saline by intravenous injection via a tail vein catheter. At the time of injection, molar activities and radiochemical purities of the compounds were as follows: [^18F]PSMA-1007 (15 MBq/nmol, >99%); Al[^18F]F-CHDT-PSMA-1 (10 MBq/nmol, 99%); Al[^18F]F-CHDT-PSMA-2 (6.3 MBq/nmol, 98%); Al[^18F]F-CHDT-PSMA-3 (4.5 MBq/nmol, >99%). Specificity of target binding was assessed by blocking PSMA binding sites with 2-phosphonomethyl pentanedioic acid (2-PMPA), administered simultaneously with the radioligand at a dose of 50 mg/kg. With injection of the radioligand, emission of the annihilation photons was recorded continuously in coincidence mode of 1:5 for 120 min. A corresponding CT image was acquired with each PET scan and used for attenuation correction and anatomical referencing. From three-dimensional list mode data, events within the energy window of 400–600 keV were extracted and sorted into 36 time frames (f1–f36) with a sequence of 15 × 10 s, 5 × 30 s, 5 × 60 s, 4 × 300 s, 3 × 600 s, and 4 × 900 s. For each time frame, a PET image was reconstructed with the three-dimensional (3D) Tera-Tomo algorithm, with a voxel size of 0.4 mm, applying corrections for random events, scattering, attenuation, and decay.
Three-dimensional regions of interest (ROIs) were defined within an image series of selected time frames using fixed intensity thresholds for delineation of organs: bones at knee joint position (0–120 min, 55%), cardiac blood volume (0–1.7 min, 70%), gall bladder (0–120 min, 39%), intestine (0–120 min, 5%), kidneys (0–2.5 min, 15%), liver (0–2.5 min, 55%), muscle (0–120 min, 0%), parotid glands (0–120 min, 39%), tumor (0–120 min, 39%), and urinary bladder (0–120 min, 5%). Activity concentrations in tissue were determined as standardized uptake value (SUV = [MBq detected activity/mL tissue]/[MBq injected activity/g body weight]) and expressed as SUVmean (ROI-averaged). Time-activity curves were generated and analyzed using Prism (GraphPad Software, San Diego CA, USA). […] Areas under curves (AUC) were calculated using the trapezoid rule. Statistical significance of mean differences was tested by analysis of variance (ANOVA) using the Šidák test.

PSMA [4] = molecular target: T1, PSMA; test: Saturation binding (surface-bound and internalized), LNCaP spheroids
Excerpt: as §1
For the formation of spheroids, the LNCaP cells were incubated overnight in a normal culture bottle with biocompatible nanoparticles ([…] with 80 μL of a suspension consisting of Au, Fe2O3 and poly-L-lysine called Nanoshuttle, Greiner Bio-One GmbH, Germany). After harvesting and cell counting, 10,000 cells/well of a 24-well plate or 7,000 cells/well of a 96-well plate (cell-repellent plates) were sown. The well plates were placed on matching plates with button magnets (Greiner Bio-One GmbH, Germany). The magnetized LNCaP cells formed suitable spheroids that were used after 5 d.
as §2, §3

[5] = Al^18F-labeled conjugate or [18F]PSMA-1007, surface-bound
[6] = SUVmean ratio 105–120 min after injection, mean ± SD
[7] = Al^18F-labeled conjugate or [18F]PSMA-1007, acid-resistant fraction, read-out: Kd,int (internalization)

Ki (PSMA [1]): 4.1 nM and 2.59 nM and 5.55 nM and 5.49 nM and 4.57 nM and 3.33 nM and 4.02 nM and 3.71 nM and 4.2 nM
Compound: O=C(O)CC[C@H](NC(=O)N[C@@H](CCCCNC(=O)[C@H](Cc1ccc2ccccc2c1)NC(=O)[C@H]1CC[C@H](CNC(=O)CN2CCN(CC(=O)O)CCN(CC(=O)O)CCN(CC(=O)O)CC2)CC1)C(=O)O)C(=O)O [PSMA-617]

Compound: O=C(O)CC[C@H](NC(=O)N[C@@H](CCCCNC(=O)[C@H](Cc1ccc2ccccc2c1)NC(=O)c1ccc(CNC(=O)[C@H](CCC(=O)O)NC(=O)[C@H](CCC(=O)O)NC(=O)c2ccc(F)nc2)cc1)C(=O)O)C(=O)O [[^18F]PSMA-1007]
Kd (PSMA [2]; Al^18F-labeled conjugate or [18F]PSMA-1007, surface-bound, 37 °C, 2 h, read-out: Kd (binding)): 5.4 nM

Compound: O=C(O)CC[C@H](NC(=O)N[C@@H](CCCCNC(=O)[C@H](Cc1ccc2ccccc2c1)NC(=O)c1ccc(CNC(=O)[C@H](CCC(=O)O)NC(=O)[C@H](CCC(=O)O)NC(=O)c2ccc([18F])nc2)cc1)C(=O)O)C(=O)O [[^18F]PSMA-1007]
Bmax (binding) (PSMA [2]; [5]): 1.11 pmol/mg
specific internalization in the presence of MβCD (PSMA [3]; 10 min): 0.02232 % AD/µg protein and 0.008008 % AD/µg protein
specific internalization (PSMA [3]; 10 min): 0.03696 % AD/µg protein and 0.02616 % AD/µg protein
specific internalization in the presence of MβCD (PSMA [3]; 1 h): 0.1091 % AD/µg protein and 0.02833 % AD/µg protein and 0.1038 % AD/µg protein
specific internalization (PSMA [3]; 1 h): 0.07765 % AD/µg protein and 0.1071 % AD/µg protein and 0.1171 % AD/µg protein
specific internalization in the presence of MβCD (PSMA [3]; 3 h): 0.04566 % AD/µg protein and 0.1478 % AD/µg protein and 0.1495 % AD/µg protein
specific internalization (PSMA [3]; 3 h): 0.2295 % AD/µg protein and 0.1701 % AD/µg protein and 0.1562 % AD/µg protein
average SUVmean in bone tissue (LNCaP tumor xenograft; 120 min p.i.): 0.21
Tu/Blood (LNCaP tumor xenograft; [6]): 14 ± 3.0
Tu/Bone (LNCaP tumor xenograft; [6]): 18 ± 7.9
Tu/Kidney (LNCaP tumor xenograft; [6]): 0.5 ± 0.2
Tu/Liver (LNCaP tumor xenograft; [6]): 16 ± 6.8
Tu/Muscle (LNCaP tumor xenograft; [6]): 20 ± 6.9

Ki (PSMA [1]): 2 nM and 1.39 nM and 1.7 nM
Bmax,int (internalization) (PSMA [2]; Al^18F-labeled conjugate or [18F]PSMA-1007, acid-resistant fraction): 1.02 ± 0.21 pmol/mg
Kd (PSMA [2]; [7]): 10.1 ± 5.9 nM
Bmax (binding) (PSMA [2]; [5]): 1.11 ± 0.06 pmol/mg
Kd (PSMA [4]; [7]): 25.8 ± 18.6 nM
Kd (PSMA [4]; Al^18F-labeled conjugate or [18F]PSMA-1007, surface-bound, read-out: Kd (binding)): 12.9 ± 1.2 nM
Compound: PSMA-1007 [reference compound]
